Measurements published in US8962596B2 (Array BioPharma Inc., priority 2010, dated 2015).

Columns and labels:
Assay type in all cases: biochemical
Human Tyk2 kinase domain = molecular target: T1, Human Tyk2 kinase domain (Homo sapiens, UniProt P29597); test: Tyk2 Inhibition Assay (Omnia kinase fluorescence peptide substrate assay); conditions: averaged IC50 ranges; assay of Example A; 10 μM (Km app) or 1 mM ATP, 2 nM Tyk2
T1 construct: comprising amino acids 886 to 1187 with 10 additional histidine residues; 10xHis (histidine tag) (C, cleaved yes); made in house
T1 sequence (P29597 886-1187): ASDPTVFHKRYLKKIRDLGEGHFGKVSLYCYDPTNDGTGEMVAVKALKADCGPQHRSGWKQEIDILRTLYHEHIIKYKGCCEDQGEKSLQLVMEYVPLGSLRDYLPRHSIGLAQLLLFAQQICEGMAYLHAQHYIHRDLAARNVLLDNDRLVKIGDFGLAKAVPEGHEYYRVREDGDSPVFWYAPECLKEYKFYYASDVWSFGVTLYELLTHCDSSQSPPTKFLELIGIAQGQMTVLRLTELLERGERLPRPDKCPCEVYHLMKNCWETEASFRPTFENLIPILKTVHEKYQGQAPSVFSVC
In short: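 2 nM His-tag-cleaved kinase domain (aa 886–1187) with 8 μM Omnia Y12 peptide, 10 μM (Km app) or 1 mM ATP, pH 7.4 HEPES/10 mM MgCl2, 2% DMSO. Fluorescence (ex 360/em 485 nm) every 50 s for 45 min; IC50 from 4-parameter fit of POC, top dose 10 μM.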

JAK1 = molecular target: T2, JAK1 (Homo sapiens, UniProt P23458); test: JAK1 Inhibition Assay (Omnia kinase fluorescence peptide substrate assay); conditions: averaged IC50 ranges; assay of Example B; 40 μM (Km app) or 1 mM ATP, 15 nM JAK1
T2 construct: purchased Invitrogen Corporation, Carlsbad, Calif; PV4775

JAK2 = molecular target: T3, JAK2 (Homo sapiens, UniProt O60674); test: JAK2 Inhibition Assay (Omnia kinase fluorescence peptide substrate assay); conditions: averaged IC50 ranges; assay of Example C; 25 μM (Km app) or 1 mM ATP, 5 nM JAK2
T3 construct: purchased Invitrogen Corporation, Carlsbad, Calif; PV4288
In short: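 5 nM JAK2 phosphorylated 10 μM Omnia Y7 peptide with ATP at 25 μM (Km app) or 1 mM, in 25 mM HEPES pH 7.4, 10 mM MgCl2, 0.01% Triton X-100, 1 mM DTT, 2% DMSO. Fluorescence (360/485 nm) was read every 50 s for 45 min. 10-point 3-fold series from 10 μM; POC versus uninhibited and background controls, 4-parameter logistic IC50.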

JAK3 = molecular target: T4, JAK3 (Homo sapiens, UniProt P52333); test: JAK3 Inhibition Assay (Omnia kinase fluorescence peptide substrate assay); conditions: averaged IC50 ranges; assay of Example D; 10 μM (Km app) or 1 mM ATP, 2.5 nM JAK3
T4 construct: purchased Invitrogen Corporation, Carlsbad, Calif; PV4080
T4 sequence (P52333 1-1124): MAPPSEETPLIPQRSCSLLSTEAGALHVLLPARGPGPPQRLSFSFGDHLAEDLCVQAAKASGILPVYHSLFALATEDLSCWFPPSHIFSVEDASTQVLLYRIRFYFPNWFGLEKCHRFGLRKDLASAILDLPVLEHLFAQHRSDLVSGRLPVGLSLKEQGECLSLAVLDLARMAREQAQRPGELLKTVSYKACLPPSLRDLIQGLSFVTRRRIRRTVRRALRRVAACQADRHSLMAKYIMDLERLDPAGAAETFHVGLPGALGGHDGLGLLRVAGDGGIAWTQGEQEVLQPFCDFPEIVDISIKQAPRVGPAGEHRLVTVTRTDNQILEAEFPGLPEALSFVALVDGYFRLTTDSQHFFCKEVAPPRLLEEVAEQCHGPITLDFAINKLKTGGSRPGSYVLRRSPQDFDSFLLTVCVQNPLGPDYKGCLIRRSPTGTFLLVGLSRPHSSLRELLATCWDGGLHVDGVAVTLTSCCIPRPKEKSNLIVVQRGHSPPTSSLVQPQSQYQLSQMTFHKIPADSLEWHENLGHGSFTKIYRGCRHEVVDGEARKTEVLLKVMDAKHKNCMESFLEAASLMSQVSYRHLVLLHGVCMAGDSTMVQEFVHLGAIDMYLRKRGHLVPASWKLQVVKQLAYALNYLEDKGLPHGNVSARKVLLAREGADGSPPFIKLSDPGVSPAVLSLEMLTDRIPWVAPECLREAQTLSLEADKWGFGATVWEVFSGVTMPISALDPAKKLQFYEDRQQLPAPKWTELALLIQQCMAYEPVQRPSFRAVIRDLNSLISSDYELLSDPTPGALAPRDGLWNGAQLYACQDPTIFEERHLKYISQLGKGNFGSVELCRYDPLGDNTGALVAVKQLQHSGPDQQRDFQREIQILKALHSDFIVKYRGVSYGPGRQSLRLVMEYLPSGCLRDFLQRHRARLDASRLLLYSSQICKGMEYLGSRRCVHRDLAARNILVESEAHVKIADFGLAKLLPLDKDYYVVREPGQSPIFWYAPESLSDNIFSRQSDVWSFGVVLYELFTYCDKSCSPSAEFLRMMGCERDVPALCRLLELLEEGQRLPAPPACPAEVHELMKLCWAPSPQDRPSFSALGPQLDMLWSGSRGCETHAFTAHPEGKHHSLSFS
In short: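 Kinase at 2.5 nM with 10 µM Omnia Y7 peptide and 10 µM (Km app) or 1 mM ATP in 25 mM HEPES pH 7.4, 10 mM MgCl2, 1 mM DTT, 0.01% Triton X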

T2 sequence (P23458 whole entry): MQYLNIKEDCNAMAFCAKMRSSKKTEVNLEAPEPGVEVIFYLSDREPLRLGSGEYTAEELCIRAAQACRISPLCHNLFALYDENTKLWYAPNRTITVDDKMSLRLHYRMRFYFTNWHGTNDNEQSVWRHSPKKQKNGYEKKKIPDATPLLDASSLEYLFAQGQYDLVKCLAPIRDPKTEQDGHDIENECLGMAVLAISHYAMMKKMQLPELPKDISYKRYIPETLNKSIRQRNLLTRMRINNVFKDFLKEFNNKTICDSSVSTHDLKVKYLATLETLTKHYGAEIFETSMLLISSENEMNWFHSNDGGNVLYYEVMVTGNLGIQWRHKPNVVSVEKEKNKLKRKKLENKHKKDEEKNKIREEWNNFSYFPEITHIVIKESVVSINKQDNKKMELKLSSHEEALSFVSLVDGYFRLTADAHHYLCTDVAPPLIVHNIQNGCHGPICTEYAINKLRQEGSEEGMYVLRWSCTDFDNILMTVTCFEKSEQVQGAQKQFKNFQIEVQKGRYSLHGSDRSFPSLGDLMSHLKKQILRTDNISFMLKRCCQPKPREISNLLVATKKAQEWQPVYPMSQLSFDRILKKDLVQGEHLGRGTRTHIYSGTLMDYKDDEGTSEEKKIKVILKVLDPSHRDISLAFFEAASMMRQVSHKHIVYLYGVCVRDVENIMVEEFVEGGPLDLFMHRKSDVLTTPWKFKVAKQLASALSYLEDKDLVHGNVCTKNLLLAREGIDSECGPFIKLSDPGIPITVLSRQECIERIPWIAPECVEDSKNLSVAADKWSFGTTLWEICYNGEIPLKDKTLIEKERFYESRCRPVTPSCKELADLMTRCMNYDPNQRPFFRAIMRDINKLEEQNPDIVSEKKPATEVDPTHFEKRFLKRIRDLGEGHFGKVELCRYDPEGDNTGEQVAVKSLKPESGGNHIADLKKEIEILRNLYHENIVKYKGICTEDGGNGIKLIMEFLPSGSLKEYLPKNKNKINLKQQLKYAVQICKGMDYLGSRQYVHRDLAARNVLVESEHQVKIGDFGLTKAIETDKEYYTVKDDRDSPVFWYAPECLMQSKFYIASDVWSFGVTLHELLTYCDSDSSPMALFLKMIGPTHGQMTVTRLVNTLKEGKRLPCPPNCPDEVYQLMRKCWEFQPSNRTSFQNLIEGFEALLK
T3 sequence (O60674 whole entry): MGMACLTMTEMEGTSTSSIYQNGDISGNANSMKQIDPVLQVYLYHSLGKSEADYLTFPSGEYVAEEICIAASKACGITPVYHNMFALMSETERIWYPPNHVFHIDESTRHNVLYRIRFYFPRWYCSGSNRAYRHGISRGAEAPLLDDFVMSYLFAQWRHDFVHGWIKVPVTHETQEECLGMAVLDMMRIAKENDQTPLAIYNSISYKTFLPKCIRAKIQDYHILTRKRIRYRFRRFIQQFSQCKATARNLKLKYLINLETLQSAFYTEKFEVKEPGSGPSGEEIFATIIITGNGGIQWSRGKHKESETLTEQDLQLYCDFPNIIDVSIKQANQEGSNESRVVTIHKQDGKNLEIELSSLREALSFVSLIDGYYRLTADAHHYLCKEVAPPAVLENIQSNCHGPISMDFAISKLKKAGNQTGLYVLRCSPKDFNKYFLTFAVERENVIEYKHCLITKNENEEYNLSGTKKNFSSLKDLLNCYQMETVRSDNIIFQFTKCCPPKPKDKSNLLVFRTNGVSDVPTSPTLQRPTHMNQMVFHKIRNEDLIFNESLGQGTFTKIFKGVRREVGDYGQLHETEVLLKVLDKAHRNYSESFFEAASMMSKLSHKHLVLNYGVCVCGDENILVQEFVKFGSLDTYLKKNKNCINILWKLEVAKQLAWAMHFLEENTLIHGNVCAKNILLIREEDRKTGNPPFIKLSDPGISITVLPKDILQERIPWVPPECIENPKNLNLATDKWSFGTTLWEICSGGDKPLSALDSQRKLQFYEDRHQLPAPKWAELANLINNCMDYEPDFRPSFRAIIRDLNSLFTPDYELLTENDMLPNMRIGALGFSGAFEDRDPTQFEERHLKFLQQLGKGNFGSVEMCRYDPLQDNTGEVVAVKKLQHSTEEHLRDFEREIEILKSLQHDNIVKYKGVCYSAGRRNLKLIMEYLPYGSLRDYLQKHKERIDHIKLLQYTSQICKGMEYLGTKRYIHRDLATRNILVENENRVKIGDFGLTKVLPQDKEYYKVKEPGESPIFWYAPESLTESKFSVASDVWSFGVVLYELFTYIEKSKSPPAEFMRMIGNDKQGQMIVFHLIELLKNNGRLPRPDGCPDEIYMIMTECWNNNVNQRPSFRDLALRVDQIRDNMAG

Work on `C[Si](C)(C)CCOCn1cc(-c2cc3nccn3c(-c3cnn(C(CC#N)C4CC4)c3)n2)cn1` (stereo not drawn) [Example 32, 3-cyclopropyl-3-(4-(7-(1-((2-(trimethylsilyl)ethoxy)methyl)-1H-pyrazol-4-yl)imidazo[1,2-c]pyrimidin-5-yl)-1H-pyrazol-1-yl)propanenitrile] yielded an IC50 (Human Tyk2 kinase domain) of 10 to 100 nM, an IC50 (JAK1) of 100 to 1000 nM and an IC50 (JAK2) of 10 to 100 nM. It also gave an IC50 (JAK3) of 100 to 1000 nM.

`N#CCC(C1CC1)n1cc(-c2nc(-c3cn[nH]c3)cc3nccn23)cn1` (stereo not drawn) [Example 33, 3-(4-(7-(1H-pyrazol-4-yl)imidazo[1,2-c]pyrimidin-5-yl)-1H-pyrazol-1-yl)-3-cyclopropylpropanenitrile] gave an IC50 (Human Tyk2 kinase domain) of 10 to 100 nM, an IC50 (JAK1) of 100 to 1000 nM and an IC50 (JAK2) of 100 to 1000 nM. The IC50 (JAK3) was over 1000 nM.

For `CC(C)n1cc(-c2cc3nccn3c(-c3cnn(C(CC#N)C4CC4)c3)n2)cn1` (stereo not drawn) [Example 34, 3-Cyclopropyl-3-(4-(7-(1-isopropyl-1H-pyrazol-4-yl)imidazo[1,2-c]pyrimidin-5-yl)-1H-pyrazol-1-yl)propanenitrile], the IC50 (Human Tyk2 kinase domain) was under 10 nM, the IC50 (JAK1) was 100 to 1000 nM and the IC50 (JAK2) was 10 to 100 nM. The IC50 (JAK3) was 100 to 1000 nM.

Work on `N#CCC(C1CC1)n1cc(-c2nc(-c3cnn(Cc4cccnc4)c3)cc3nccn23)cn1` (stereo not drawn) [Example 35, 3-cyclopropyl-3-(4-(7-(1-(pyridin-3-ylmethyl)-1H-pyrazol-4-yl)imidazo[1,2-c]pyrimidin-5-yl)-1H-pyrazol-1-yl)propanenitrile] yielded an IC50 (Human Tyk2 kinase domain) of under 10 nM, an IC50 (JAK1) of 100 to 1000 nM and an IC50 (JAK2) of 10 to 100 nM. The IC50 (JAK3) was 100 to 1000 nM.

For `N#CCC(C1CC1)n1cc(-c2nc(-c3cnn(C4CCOCC4)c3)cc3nccn23)cn1` (stereo not drawn) [Example 36, 3-cyclopropyl-3-(4-(7-(1-(tetrahydro-2H-pyran-4-yl)-1H-pyrazol-4-yl)imidazo[1,2-c]pyrimidin-5-yl)-1H-pyrazol-1-yl)propanenitrile], the IC50 (Human Tyk2 kinase domain) was under 10 nM, the IC50 (JAK1) was 100 to 1000 nM and the IC50 (JAK2) was 10 to 100 nM. It also gave an IC50 (JAK3) of 100 to 1000 nM.

In the case of `CC(C)Cn1cc(-c2cc3nccn3c(-c3cnn(C(CC#N)C4CC4)c3)n2)cn1` (stereo not drawn) [Example 37, 3-cyclopropyl-3-(4-(7-(1-isobutyl-1H-pyrazol-4-yl)imidazo[1,2-c]pyrimidin-5-yl)-1H-pyrazol-1-yl)propanenitrile], the IC50 (Human Tyk2 kinase domain) is reported as 10 to 100 nM, the IC50 (JAK1) is reported as 100 to 1000 nM and the IC50 (JAK2) is reported as 10 to 100 nM. It also gave an IC50 (JAK3) of over 1000 nM.

`N#CCC(C1CC1)n1cc(-c2nc(-c3cnn(C4COC4)c3)cc3nccn23)cn1` (stereo not drawn) [Example 38, 3-Cyclopropyl-3-(4-(7-(1-(oxetan-3-yl)-1H-pyrazol-4-yl)imidazo[1,2-c]pyrimidin-5-yl)-1H-pyrazol-1-yl)propanenitrile] showed an IC50 (Human Tyk2 kinase domain) of under 10 nM, an IC50 (JAK1) of 100 to 1000 nM and an IC50 (JAK2) of 10 to 100 nM. It also gave an IC50 (JAK3) of 100 to 1000 nM.

`N#CCC(C1CC1)n1cc(-c2nc(-c3cnn(CC(F)(F)F)c3)cc3nccn23)cn1` (stereo not drawn) [Example 39, 3-cyclopropyl-3-(4-(7-(1-(2,2,2-trifluoroethyl)-1H-pyrazol-4-yl)imidazo[1,2-c]pyrimidin-5-yl)-1H-pyrazol-1-yl)propanenitrile] showed an IC50 (Human Tyk2 kinase domain) of under 10 nM, an IC50 (JAK1) of 10 to 100 nM and an IC50 (JAK2) of 10 to 100 nM. For the same compound, the IC50 (JAK3) was 100 to 1000 nM.

Compound `CCn1cc(-c2cc3nccn3c(-c3cnn(C(CC#N)C4CC4)c3)n2)cn1` (stereo not drawn) [Example 40, 3-cyclopropyl-3-(4-(7-(1-ethyl-1H-pyrazol-4-yl)imidazo[1,2-c]pyrimidin-5-yl)-1H-pyrazol-1-yl)propanenitrile] has an IC50 (Human Tyk2 kinase domain) of under 10 nM, an IC50 (JAK1) of 100 to 1000 nM and an IC50 (JAK2) of 10 to 100 nM. The IC50 (JAK3) was 100 to 1000 nM.

`CC(C)OCCn1cc(-c2cc3nccn3c(-c3cnn(C(CC#N)C4CC4)c3)n2)cn1` (stereo not drawn) [Example 41, 3-cyclopropyl-3-(4-(7-(1-(2-isopropoxyethyl)-1H-pyrazol-4-yl)imidazo[1,2-c]pyrimidin-5-yl)-1H-pyrazol-1-yl]propanenitrile] showed an IC50 (Human Tyk2 kinase domain) of 10 to 100 nM, an IC50 (JAK1) of 100 to 1000 nM and an IC50 (JAK2) of 10 to 100 nM. The IC50 (JAK3) was over 1000 nM.

Work on `N#CCC(C1CC1)n1cc(-c2nc(-c3cnn(C4CCC4)c3)cc3nccn23)cn1` (stereo not drawn) [Example 42, 3-(4-(7-(1-cyclobutyl-1H-pyrazol-4-yl)imidazo[1,2-c]pyrimidin-5-yl)-1H-pyrazol-1-yl)-3-cyclopropylpropanenitrile] yielded an IC50 (Human Tyk2 kinase domain) of under 10 nM, an IC50 (JAK1) of 10 to 100 nM and an IC50 (JAK2) of 10 to 100 nM. For the same compound, the IC50 (JAK3) was 100 to 1000 nM.

Work on `N#CCC(C1CC1)n1cc(-c2nc(-c3cnco3)cc3nccn23)cn1` (stereo not drawn) [Example 43, 3-cyclopropyl-3-(4-(7-(oxazol-5-yl)imidazo[1,2-c]pyrimidin-5-yl)-1H-pyrazol-1-yl)propanenitrile] yielded an IC50 (Human Tyk2 kinase domain) of 10 to 100 nM, an IC50 (JAK1) of over 1000 nM and an IC50 (JAK2) of 100 to 1000 nM. For the same compound, the IC50 (JAK3) was over 1000 nM.

`CN1CCN(CCn2cc(-c3cc4nccn4c(-c4cnn(C(CC#N)C5CC5)c4)n3)cn2)CC1` (stereo not drawn) [Example 44, 3-cyclopropyl-3-(4-(7-(1-(2-(4-methylpiperazin-1-yl)ethyl)-1H-pyrazol-4-yl)imidazo[1,2-c]pyrimidin-5-yl)-1H-pyrazol-1-yl)propanenitrile] was tested, and the IC50 (Human Tyk2 kinase domain) was 10 to 100 nM, the IC50 (JAK1) was 100 to 1000 nM and the IC50 (JAK2) was 10 to 100 nM. The IC50 (JAK3) was 100 to 1000 nM.

For `Cc1nnc(-c2cc3nccn3c(-c3cnn(C(CC#N)C4CC4)c3)n2)s1` (stereo not drawn) [Example 45, 3-Cyclopropyl-3-(4-(7-(5-methyl-1,3,4-thiadiazol-2-yl)imidazo[1,2-c]pyrimidin-5-yl)-1H-pyrazol-1-yl)propanenitrile], the IC50 (Human Tyk2 kinase domain) was 100 to 1000 nM, the IC50 (JAK1) was over 1000 nM and the IC50 (JAK2) was over 1000 nM. The IC50 (JAK3) was over 1000 nM.

`Cc1cn(-c2cc3nccn3c(-c3cnn(C(CC#N)C4CC4)c3)n2)cn1` (stereo not drawn) [Example 46, 3-Cyclopropyl-3-(4-(7-(4-methyl-1H-imidazol-1-yl)imidazo[1,2-c]pyrimidin-5-yl)-1H-pyrazol-1-yl)propanenitrile] showed an IC50 (Human Tyk2 kinase domain) of 10 to 100 nM, an IC50 (JAK1) of over 1000 nM and an IC50 (JAK2) of 100 to 1000 nM. The IC50 (JAK3) was over 1000 nM.

`N#CCC(C1CC1)n1cc(-c2nc(-c3cncs3)cc3nccn23)cn1` (stereo not drawn) [Example 47, 3-Cyclopropyl-3-(4-(7-(thiazol-5-yl)imidazo[1,2-c]pyrimidin-5-yl)-1H-pyrazol-1-yl)propanenitrile] was tested, and the IC50 (Human Tyk2 kinase domain) was 10 to 100 nM, the IC50 (JAK1) was 100 to 1000 nM and the IC50 (JAK2) was 100 to 1000 nM. The IC50 (JAK3) was over 1000 nM.

Compound `Cc1ncc(-c2cc3nccn3c(-c3cnn(C(CC#N)C4CC4)c3)n2)s1` (stereo not drawn) [Example 48] has an IC50 (Human Tyk2 kinase domain) of 10 to 100 nM, an IC50 (JAK1) of 100 to 1000 nM and an IC50 (JAK2) of 10 to 100 nM. For the same compound, the IC50 (JAK3) was 100 to 1000 nM.

With `Cc1ccc(-c2cc3nccn3c(-c3cnn(C(CC#N)C4CC4)c3)n2)cn1` (stereo not drawn) [Example 49, 3-Cyclopropyl-3-(4-(7-(6-methylpyridin-3-yl)imidazo[1,2-c]pyrimidin-5-yl)-1H-pyrazol-1-yl)propanenitrile] the IC50 (Human Tyk2 kinase domain) was 10 to 100 nM, the IC50 (JAK1) was 100 to 1000 nM and the IC50 (JAK2) was 100 to 1000 nM. For the same compound, the IC50 (JAK3) was over 1000 nM.
